Laboratory results from patent US20140142140A1, “PHARMACEUTICAL COMPOSITION FOR NEUROLOGICAL DISORDERS” (priority 2011, published 2014).

Key:
[1] = test system: patients with visual fatigue / impaired visual acuity; experiment: Case reports, Visual fatigue / visual acuity (Example 5); format: in vivo, human; settings: for three-dimensional delicate work (visual acuity and depth perception): Patient 5d
From the text: Adult with a history of ADHD stabilised on a combination of a psychostimulant and sodium valproate.
Adult diagnosed with ADHD and stable on treatment with psychostimulants. […] Previously always relied on glasses to read because of an astigmatism.
Adult previously diagnosed with ADHD and no longer taking stimulant medication.

[2] = test system: patients with closed head injury; experiment: Case reports, Acquired Brain Injury (Example 4); format: in vivo, human
[3] = test system: patients with Alzheimer's type dementia; experiment: Case reports, Mild Cognitive Impairment (MCI) and Dementia (Example 1); format: in vivo, human
From the text: Patient 1A was an elderly person with history of impairment of cognitive function. Presumptive diagnosis of possible dementia of Alzheimers type.
Patient 1B was an elderly retired person with a 7 year history of Alzheimer's type dementia treated with the cholinesterase inhibitor Donepezil. […] Their cognitive function has gradually deteriorated since this time. […] Their reading was more fluent being better able to follow the meaning of the text. There was also improvement in their Stroop Test particularly in part three, the more cognitively demanding where their accuracy improved from 50 to 90%.

[4] = test system: individuals with symptoms of ADHD
[5] = test system: patients with reading / learning difficulties; experiment: Case reports, Reading Disorder (Example 2); format: in vivo, human
From the text: They noticed greater contrast when reading. This had reduced their dependency upon spectacles which they had relied on for many years. […] Patient described an unexpected improvement in the clarity and contrast of the words and letters, further commenting on the improvement in their ability to both see and comprehend the words simultaneously. Patient also described a reduction in the instability or movement of the words on the page which had always been experienced when reading. Also further commented on the subjective improvement in vision, with an apparent improved depth perception. […] Patient noticed greater contrast in the text when reading and this had reduced their dependency upon spectacles which they had relied on for many years. […] The patient has been able to sustain employment with considerable effort. Reading had always been effortful and largely unrewarding. Patient had described difficulties tracking along the text being frequently distracted by the lines above and below becoming lost on the page as well as having little recall or comprehension of what they had read.

[6] = test system: patient with chronic neck pain; experiment: Case report, Chronic Pain (Example 12); format: in vivo, human
Experimental: A further sublingual dose of phenyloin 1 mg was taken 15 mins after the first dose.

[7] = test system: patient with tardive dyskinsia; experiment: Case report, Tardive Dyskinesia (Example 10); format: in vivo, human; settings: Patient 10A; test dose of 1 mg
From the text: Patient 10A was an elderly person with a history of post-dramatic stress disorder treated with long-term antipsychotic medication.

[8] = test system: patients with autism / ASD / communication disorder; experiment: Case reports, Autism and other Pervasive Development Disorders (Example 6); format: in vivo, human; settings: for communication, family relationships, behavioural disturbance: 1 mg daily increased to 3 mg in divided doses daily
From the text: Patient 6A: Adult, diagnosed in childhood with autism and ADHD. A long history of behavioural disturbance with frequent episodes of violence despite treatment with high-dose antipsychotic medication. […] The high-dose antipsychotic medication has been reduced without any associated loss of recent benefit. […] A history of behavioural disturbance and educational impairment. […] Patient 6C was an adult, diagnosed in childhood with autism and ADHD with a history of behavioural disturbance and educational impairment. […] Patient 6D: Adult, diagnosed in childhood with autism, ADHD and antisocial personality traits. […] Patient C's conversation became more appropriate and consistent together with reported improvements in significant relationships. […] Patient 6E was an adult, diagnosed with communication disorder and major depression. […] Patient 6F was an adult with ASD. […] The patient's conversation became more appropriate and consistent and improvements in significant relationships were reported. A reduction in the reliance on alcohol to alleviate anxiety in social situations was observed. […] Sodium valproate was withdrawn and improvement was noted. […] Patient 6G was as adult, diagnosed in childhood with ASD. […] Sodium valproate was withdrawn. […] This has also been associated with improvements in reading and verbal understanding. These benefits have been sustained in some situations for three years. Although difficult to be objective, there seems to be good evidence of ongoing improvement. […] Improvements in coordination, in fine and gross motor control have been reported and improvement in gait which frequently is a significant issue for individuals with autistic disorders.

[9] = Patient 4A, test dose less than 3 mg via buccal mucosa
[10] = Patient 4B, test sublingual dose 1 mg

## O=C1NC(=O)C(c2ccccc2)(c2ccccc2)N1 [phenyloin, 5,5-diphenylhydantoin]
[1]; Patient 5a, ADHD on psychostimulant and sodium valproate, 4 mg added
  overall functioning: further improvement in their overall functioning
[1]; Patient 5a, 4 mg added
  visual fatigue: visual fatigue no longer occurred
[1]; Patient 5b, ADHD on psychostimulants, 2 mg daily
  function: significant improvement in function
[1]; Patient 5b, 2 mg daily
  visual acuity: apparent improvement in their visual acuity
[1]; Patient 5c, 1 mg
  visual acuity whilst reading: immediate and unexpected improvement in visual acuity
[1]; Patient 5e, low dose
  judging distances when playing lawn bowls: improvement in their ability to accurately identify distances
[1]; Patient 5f, low dose
  visual judgement when playing soccer: improvement in visual judgement
[1]; 1 mg
  three-dimensional delicate work (visual acuity and depth perception): most consistent improvement
[1]; 2 mg
  three-dimensional delicate work (visual acuity and depth perception): improved
[2]; Patient 4A, dose increased, second day
  clinical response to increased dose, following day: no dramatic improvement
[2]; Patient 4A, phenyloin ceased, followed by deterioration to pre-phenyloin functioning
  functioning over five days after cessation: gradual improvement in their functioning
[2]; Patient 4A, repeated sublingual dose
  developmental Eye Movement Test and Stroop test: consistent with the improved cognitive functioning
[2]; Patient 4A, same increased dose, third day
  clinical response to repeated dose, third day: noticeable deterioration in their ability to focus and organize their thinking
[2]; [9]
  ability to focus: dramatic and unexpected improvement in their ability to focus
  motor tics and vocalisations: repetitive chanting and hand movements ceased
[2]; Patient 4B, 3 mg
  reading: began reading for the first time in 10 years
[2]; Patient 4B, initial dose of 3 mg
  ability to organise and undertake tasks: unexpected and dramatic improvement in the ability to organise and undertake tasks
[2]; [10]
  effort required for communication: reduction in the effort required for communication
  subjective vision: enhanced clarity of vision
[2]; Patients 4A and 4B, further dose
  irritability and sense of being overwhelmed after a further dose: temporary relief
[2]; both cases (Patients 4A and 4B)
  duration of sustained improvements: over 12 months
[3]; Patient 1A, possible dementia of Alzheimers type, 25 mg
  cognitive function, clinical response: some improvement but benefit was lost on continuation of this dose
[3]; Patient 1A, 3 mg daily
  duration of sustained benefit: over 24 months
[3]; Patient 1A, daily dose of 3 mg in divided doses orally
  cognitive function, clinical response: significant improvement
[3]; Patient 1A, withdrawal after 25 mg
  cognitive function after withdrawal of medication: transient improvement followed by a return to pre-phenyloin functioning
[3]; Patient 1B (treated with Donepezil), test dose 1 mg sublingual
  ability to read a standard text: significant improvement in their ability to read a standard text
[3]; Patient 1B, 1 mg sublingual
  time to improvement in reading after dose: ≤ 10 min
[3]; Patient 1B, 1 mg sublingual single dose
  functioning the following day after single dose: more able to initiate activities
[3]; Patient 1B, 1 mg sublingual, improved from 50
  Stroop Test part three accuracy after dose: 90%
[4]; Patient 3A
  duration of improvement on ceasing before deterioration: up to 7 days
  most efficacious dose: 0.1 mg daily
[4]; Patient 3A (on tricyclic antidepressant and dexamphetamine), 30 mg capsule
  ADHD symptoms, clinical response: temporarily associated with improvement in clarity of thoughts and eye contact during conversation
[4]; Patient 3A, lower dose
  clinical response on reintroduction at a lower dose: initial benefit that associated with rapid loss of efficacy
[4]; Patient 3A, phenyloin withdrawn
  functioning after withdrawal: initial improvement then later worsening to the pre-phenyloin functioning
[4]; in vivo
  side effects of higher doses: significant cognitive side effects
[4]; individuals with symptoms of ADHD, higher doses
  efficacy of higher doses: ineffective
[4]; individuals with symptoms of ADHD, ultra low doses
  symptoms of ADHD, clinical response: improvements were noted
[5]; Patient 2A, 1 mg daily
  visual acuity / contrast when reading: visual acuity had appeared to improve
[5]; Patient 2A
  benefits at a higher dose: not sustained at a higher dose
[5]; Patient 2B, 1 mg sub lingual dose
  reading, pseudo word component of WAIT: improved ability to read
[5]; Patient 2B, dose increased to 50 mg
  benefits at increased dose: beneficial effects were lost
[5]; Patient 2C, 1 mg daily
  visual acuity / contrast in the text when reading: visual acuity had appeared to improve
[5]; Patient 2C
  benefits at a higher dose: not sustained at a higher dose
[5]; Patient 2D, 0.5 mg dose
  ability to read: significant improvement in their ability to read with less effort
[6]; additional sublingual dose 1 mg on top of 3 mg modified release
  freedom of movement without pain: further acute improvement in the freedom of movement without pain
[6]; daily dose 3 mg modified release capsule
  control of chronic pain on maintenance: control of the chronic pain was maintained
[6]; sublingual 1 mg
  duration of relief: approximately 10 min
  vision during relief: enhancement in their vision
[6]; sublingual 1 mg, from 10/10 (most severe) before dose
  intensity of the pain after dose: 5/10
[6]; ultra low dose
  invasive and distressing nature of cervical pain: reduced with unexpected efficacy and rapidity
[7]
  abnormal facial movements: abnormal facial movements ceased
[8]; Patient 6A, autism and ADHD, single test dose sublingual 1 mg
  social interaction and conversation: immediate improvement noted in their ability to socially interact and sustain limited conversation
[8]; Patient 6A, 4 mg sustained release daily
  social interaction, home and day respite centre: improvement was consistently noted
[8]; Patient 6A, withdrawal and recommencement
  behaviour after withdrawal: return of the behavioural disturbance which abated on recommencement
[8]; Patient 6B
  communication, family relationships, behavioural disturbance: sustained improvement in communication and family relationships together with a reduction in behavioural disturbance
  improvements at a higher dose or withdrawn: Improvements were lost
[8]; Patient 6C
  communication, family relationships, behavioural disturbance: sustained improvement in communication and family relationships together with a reduction in behavioural disturbance
  improvements at a higher dose or withdrawn: improvements were lost
[8]; Patient 6D, 2 mg daily
  behaviour, verbal and non-verbal communication: Significant improvement in behaviour, verbal and non-verbal communication
[8]; Patient 6D, 4 mg
  benefit of increased dose: No additional benefit
[8]; autistic spectrum and social communication disorders, Ultra low dose, frequently below 5 mg
  non-verbal and verbal communication: frequent instant improvement in both their non-verbal and verbal communication
[8]; low dose
  duration of sustained benefits in some situations: three years
[8]; ultra low dose
  symptoms of Social Communication Disorder: significant improvements in many patients
